Test results taken from patent publication US20190358214A1, “Compositions and Methods for Treating HCV Infection” (AbbVie Inc., priority 2016, published 2019).

Key:
[1] = as described in Example 41 of U.S. patent application Ser. No. 15/254,342; cited from earlier work
[2] = modeling translating dog study results to human liver pharmacokinetics; settings: modeled from dog study, once daily dosing
Procedure: (§1) This was believed to be attributed to the unique prodrug moiety in Compound 1, which is different from that in sofosbuvir. See paragraphs [0017]. [0018] and [0019] of U.S. patent application Ser. No. 15/254,342. In 4-day repeat dose dog liver biopsy study, Compound 1 dosed orally at 1 mg/kg delivered the similar liver triphosphate levels as sofosbuvir dosed orally at 5 mg/kg. Further modeling provided that 75 mg Compound 1 once daily dosing in human patients would match the liver triphosphate Cmax achieved by 400 mg sofosbuvir once daily dosing, that 80 mg Compound 1 once daily dosing in human patients would match the liver triphosphate AUC0-24 achieved by 400 mg sofosbuvir once daily dosing, and that 16 mg Compound 1 once daily dosing in human patients would maintain Cmin above GT1b polymerase EC50. The model that was used to translate dog study results to human liver pharmacokinetics was validated by sofosbuvir data.

[3] = 4-day repeat dose dog liver biopsy study; type: in vivo; settings: Compound 1 dosed orally at 1 mg/kg
Procedure: as §1

CCOC(=O)C(C)(C)N[P@](=O)(OC[C@H]1O[C@@H](n2ccc(=O)[nH]c2=O)[C@@](F)(Br)[C@@H]1O)Oc1ccccc1 [Compound 1]
active triphosphate profiles as compared to sofosbuvir [1]: significantly improved | once daily dose in human patients that would maintain Cmin above GT1b polymerase EC50 [2]: 16 mg | once daily dose in human patients that would match the liver triphosphate AUC0-24 achieved by 400 mg sofosbuvir once daily [2]: 80 mg | once daily dose in human patients that would match the liver triphosphate Cmax achieved by 400 mg sofosbuvir once daily [2]: 75 mg | liver triphosphate levels compared with sofosbuvir dosed orally at 5 mg/kg [3]: similar
